Structures can show the parent of a compound that is named as a salt.
Tests used:
[1] = target: T1, pirin (Homo sapiens, UniProt O00625); assay: Surface plasmon resonance on immobilized pirin (Biacore); format: binding; parameters: hexahistidine tag (N); strep tag (C); host or cells: E. coli; conditions: SPR, pirin on CM7 chip, PBS with 2% DMSO and 0.05% tween 20
T1 sequence (O00625 1-290): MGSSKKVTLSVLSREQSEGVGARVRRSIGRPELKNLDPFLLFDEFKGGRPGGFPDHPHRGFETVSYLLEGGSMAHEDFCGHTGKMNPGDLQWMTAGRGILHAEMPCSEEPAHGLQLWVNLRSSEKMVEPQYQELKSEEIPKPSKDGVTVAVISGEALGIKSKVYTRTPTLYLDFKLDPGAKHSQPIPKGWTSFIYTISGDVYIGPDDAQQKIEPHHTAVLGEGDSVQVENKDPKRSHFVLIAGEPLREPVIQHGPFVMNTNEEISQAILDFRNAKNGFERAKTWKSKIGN
Protocol: A control chip was also prepared under identical condition but without including pirin in the reaction. […] A series of increasing concentrations of compound, either the control ThPA or a compound of the present invention is then applied to the pirin modified CM7 chip in phosphate buffered saline containing 2% DMSO and 0.05% tween 20 and sensorgrams are recorded covering the association, equilibrium and dissociation phases of the response.

[2] = test system: EGR1 promoter; assay: EGR1 reporter assay (luciferase) in genomically engineered HeLa cell line; format: cell-based; conditions: Homo sapiens; EGR1 reporter HeLa cells, luciferase activity after 24 hours with compound
Procedure, shortened: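 HeLa cells with eGFP-P2A-luciferase knocked in by CRISPR behind the endogenous EGR1 promoter, seeded 2000/well in DMEM with 10% FCS for 24 h. Cells treated 24 h with an 11-point 1:3 series from 100 μM initial DMSO dilution. Readout: luciferase bioluminescence.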

[3] = test system: patient derived CLL samples; assay: Growth inhibition of cells derived from patients with CLL; format: cell-based; conditions: three days incubation, ATPlite
Protocol: HeLa, A549 and HCT116 cells were grown in high-glucose Dulbecco's Modified Eagle's Medium (DMEM, Sigma)+10% FBS+1% penicillin and streptomycin+1% L-glutamine, at 37° C. with 5% CO2 and 95% humidity. Cytotoxic screening of the ProQinase panel of 100 cell-lines was performed by ProQinase (Freiburg, Germany). Patient derived CLL isolates were prepared and screened as described by Dietrich et al. (S. Dietrich et al., J Clin Invest, 2018, 128(1), 427-445). Cell viability was determined after 48 hours using the ATP-based CellTiter Glo assay (Promega). Luminescence was measured with a Tecan Infinite F200 Microplate Reader (Tecan Group AG) and with an integration time of 0.2 seconds per well.
The response of 97 tumour samples derived from patients with CLL was investigated. All samples tumor cells were obtained from whole blood, subjected to Ficoll-Isopaque density centrifugation. CD19+B and CD3+ T cells were isolated by positive magnetic cell separation (Miltenyi Biotec). Sorted cells were checked for purity by fluorescence-activated cell sorting (FACS) with CD19/CD20 for healthy control samples and CD19/CD20/CD5 for CLL samples (BD Biosciences). Following sorting, all samples with a CD19/CD20/CD5 purity <98% were subjected to additional sorting, and the average final purity of all sorted samples was >99%. CLL samples with >[…] were not subject to purification.
Cells are incubated for three days with an eight-point three-fold titration series of the test compound from an initial concentration of 30 μM (2000 cells per well in a volume of 50 μl). Cellular viability is estimated by the addition of 25 μL of ATPlite (Perkin Elmer) with the resulting luminescence measured using an EnVision Xcite plate reader (Perkin Elmer).
In addition, the growth inhibitory response of a selection of 27 patient derived CLL isolates (S. Dietrich et al., J Clin Invest, 2018, 128(1), 427-445) against the compounds of examples 64 and 85 was evaluated using the procedure as described above.

[4] = target: T1, pirin; assay: Nano differential scanning fluorimetry (NanoDSF), thermal melting of pirin; conditions: 10 μM pirin in PBS, 20 μM test compound
Excerpt: NanoDSF is an advanced Differential Scanning Fluorimetry method for measuring protein stability using intrinsic tryptophan or tyrosine fluorescence. The fluorescence of the tryptophans and tyrosines in a protein is strongly dependent on their close surroundings. Changes in protein structure typically affect both the intensity and the emission wavelength especially of tryptophan fluorescence. By measuring fluorescence intensity at 330 nm and 350 nm, the change in fluorescence intensity and the shift of the fluorescence maximum upon unfolding can be used to detect thermal melting of the protein. Proteins are stabilized when associated with ligands and show a shift in their melting temperatures. NanoDSF has the advantages of being label free and observing the protein in solution.
A 10 μM solution of pirin in phosphate buffered saline, with or without 20 μM test compound, is subject to thermal denaturation under fluorescence monitoring using a Prometheus NT.48 instrument of NanoTemper Technologies. Unliganded pirin has a complex biphasic melting curve. […] If the test compound is a ligand to pirin, it adopts a single thermal transition some 10° C. above that of apopirin.

Structure (SMILES)	EC50 [2] [µM]	also measured
Cc1cccc2c(CC(=O)Nc3ncc(C(F)(F)F)s3)coc12 [Example 72, 2-(7-Methylbenzofuran-3-yl)-N-[5-(trifluoromethyl)thiazol-2-yl]acetamide]	0.01 to 10	Kd [1]: 1.6 µM; patient samples killed with an EC50 less than 10 μM ([3]; 45 of 97 samples): 46%; patient derived CLL samples with cytotoxic effect ([3]; 90 of 97 samples): 93%
NCc1ccc(-c2csc(NC(=O)Cc3coc4cc5c(cc34)CCC5)n2)o1 [Example 100, hydrochloride salt]	0.01 to 10	
Cc1cc2occ(CC(=O)Nc3nc(-c4ccc(CN)cc4)cs3)c2cc1C [Example 101, N-[4-[4-(Aminomethyl)phenyl]thiazol-2-yl]-2-(5,6-dimethylbenzofuran-3-yl)acetamide, hydrochloride salt]	0.01 to 10	increase in the Tm of melting [4]: approximately 11 °C
Cc1ccc2c(CC(=O)N(c3ccc(SC(F)F)cc3)c3nc4ccccc4s3)coc2c1 [Example 102, N-(1,3-Benzothiazol-2-yl)-N-[4-(difluoromethylsulfanyl)phenyl]-2-(6-methylbenzofuran-3-yl)acetamide]	0.01 to 10	
CNC(=O)c1nc(NC(=O)Cc2coc3c(C)c(C)ccc23)sc1C(F)(F)F [Example 103, 2-(2-(6,7-dimethylbenzofuran-3-yl)acetamido)-N-methyl-5-(trifluoromethyl)thiazole-4-carboxamide]	10 to 100	
Cc1cnc(NC(=O)Cc2coc3ncccc23)s1 [Example 104, 2-(Furo[2,3-b]pyridin-3-yl)-N-(5-methylthiazol-2-yl)acetamide]	10 to 100	
O=C(Cc1coc2ncccc12)Nc1ncc(C(F)(F)F)s1 [Example 106, 2-(Furo[2,3-b]pyridin-3-yl)-N-(5-(trifluoromethyl)thiazol-2-yl)acetamide]	0.01 to 10	
